Measured values published in ChEMBL document CHEMBL3244094, “Nonenolizable podophyllotoxin derivatives” (1977).
Active and inactive are the calls of the source. The rule behind the calls is not given here.

Assays:
[1] = system: P815; assay: Cytotoxicity against mouse P815 cells assessed as concentration required to produce 50% arrest of mitotic activity; assay type: functional
[2] = system: L5178Y; assay: Cytotoxicity against mouse L5178Y cells assessed as concentration required to produce 50% inhibition of cell count in suspension of growing cells; assay type: functional
[3] = system: TA3; assay: Cytotoxicity against mouse TA3 cells assessed as concentration required to produce 50% decrease in protein production; assay type: functional
[4] = species: Gallus gallus; assay: Competitive binding affinity to tubulin in chick embryo brain by radioactive colchicine displacement assay; assay type: tissue-based
[5] = species: Gallus gallus; assay: Inhibition of tubulin in chick brain assessed as concentration required to inhibit microtubule formation by 50%
[6] = system: TLX-5; assay: Anticancer activity against mouse TLX5 cells allografted in mouse; assay type: functional, cell-based
[7] = system: L1210; assay: Anticancer activity against mouse L1210 cells allografted in mouse; assay type: functional, cell-based
[8] = system: TA3; assay: Anticancer activity against mouse TA3 cells allografted in mouse; assay type: functional, cell-based
[9] = In vivo inhibition of microtubule assembly in Stentor coeruleus assessed as minimum concentration required to delay regeneration of ciliated oral apparatus by […] analysis; assay type: functional
[10] = species: Gallus gallus; assay: Competitive binding affinity to tubulin in chick embryo brain by radioactive colchicine displacement assay relative to podophyllotoxin
[11] = species: Gallus gallus; assay: Inhibition of tubulin in chick brain assessed as concentration required to inhibit microtubule formation by 50% relative to podophyllotoxin; conditions: concentration not given here
[12] = In vivo inhibition of microtubule assembly in Stentor coeruleus assessed as minimum concentration required to delay regeneration of ciliated oral apparatus by […] analysis relative to podophyllotoxin; assay type: functional
[13] = system: Caelifera; assay: Competitive binding affinity to tubulin in grasshopper embryo by radioactive colchicine displacement assay

SMILES | Activity [1] [×10⁻⁷ M] | Activity [2] [×10⁻⁷ M] | Activity [3] [×10⁻⁷ M] | Activity [4] | Activity [5] [×10⁻⁷ M] | Activity [6] | Activity [7] | Activity [8] | KA [4] [×10⁶ L/mol] | MEC [9] [µM] | Activity [10] [%] | inhibition [11] [%] | inhibition (INH) [12] [%] | KA [13] [×10⁶ L/mol]
COc1cc([C@H]2c3cc4c(cc3[C@@H](O)[C@H]3CS(=O)(=O)C[C@H]23)OCO4)cc(OC)c1OC | >220 | >220 | >100 | Active | > 1000 | – | – | – | – | – | – | – | – | –
COc1cc([C@H]2c3cc4c(cc3C[C@H]3CSC[C@@H]32)OCO4)cc(OC)c1OC | 6 | 15 | 50 | Active | 100 | – | – | – | – | – | – | – | – | –
COc1cc([C@H]2c3cc4c(cc3C[C@H]3COC(=O)[C@H]32)OCO4)cc(OC)c1OC [ISOPICRODEOXYPODOPHYLLOTOXIN] | 1.3 | – | – | – | – | – | – | – | – | – | – | – | – | –
COc1cc([C@H]2c3cc4c(cc3[C@@H](O)[C@H]3COC(=O)[C@H]23)OCO4)cc(OC)c1OC | 0.12 | 0.14 | 3 | – | 6 | inactive | inactive | inactive | 2 | 4 | – | – | – | –
COc1cc([C@H]2c3cc4c(cc3C[C@H]3COC[C@@H]32)OCO4)cc(OC)c1OC | 0.52 | 1.4 | 6 | – | 8 | inactive | inactive | inactive | 0.4 | – | 20 | 75 | – | –
COc1cc([C@H]2c3cc4c(cc3[C@@H](O)[C@H]3CSC[C@H]23)OCO4)cc(OC)c1OC | 4.3 | 14 | 60 | Active | 100 | – | – | – | – | – | – | – | – | –
COc1cc([C@H]2c3cc4c(cc3C[C@H]3COC(=O)[C@@H]32)OCO4)cc(OC)c1OC | 0.05 | – | – | – | – | – | – | – | 2 | – | – | – | – | –
COc1cc([C@H]2c3cc4c(cc3[C@@H](O)[C@H]3COC[C@H]23)OCO4)cc(OC)c1OC | 0.59 | 1.3 | 6 | – | 10 | inactive | inactive | inactive | 0.2 | 20 | 13 | 60 | 20 | –
COc1cc([C@H]2c3cc4c(cc3[C@@H](O)[C@H]3COC(=O)[C@@H]23)OCO4)cc(OC)c1OC | 1.9 | – | – | – | – | – | – | – | – | – | – | – | – | 0.037
COc1cc([C@H]2c3cc4c(cc3C[C@H]3CS(=O)(=O)C[C@@H]32)OCO4)cc(OC)c1OC | 69 | 139 | >100 | Active | > 500 | – | – | – | – | – | – | – | – | –
COc1cc([C@H]2c3cc4c(cc3C[C@H]3CCC[C@@H]32)OCO4)cc(OC)c1OC | 6.5 | 16 | 50 | – | 50 | – | – | – | 0.02 | – | – | – | – | –
COc1cc([C@H]2c3cc4c(cc3C[C@H]3CC(=O)C[C@@H]32)OCO4)cc(OC)c1OC | 1 | 15 | 15 | – | 50 | – | – | – | 0.02 | – | – | – | – | –
